Measured values taken from ChEMBL document CHEMBL5154804, “Species-Selective Targeting of Fungal Hsp90: Design, Synthesis, and Evaluation of Novel 4,5-Diarylisoxazole Derivatives for the Combination Treatment of Azole-Resistant Candidiasis” (J Med Chem, 2022).
pIC50, pKd: −log10 of the molar value.

Tests used:
Candida albicans [1] = experiment: Synergistic antifungal activity against fluconazole-resistant Candida albicans 901 assessed as inhibition of fungal growth in presence of fluconazole by checker board microdilution assay; assay type: functional
Candida albicans [2] = experiment: Synergistic antifungal activity against fluconazole-resistant Candida albicans 904 assessed as inhibition of fungal growth in presence of fluconazole by checker board microdilution assay; assay type: functional
Candida albicans [3] = experiment: Synergistic antifungal activity against fluconazole-resistant Candida albicans 632 assessed as inhibition of fungal growth in presence of fluconazole by checker board microdilution assay; assay type: functional
Candida albicans [4] = experiment: Synergistic antifungal activity against fluconazole-resistant Candida albicans 100 assessed as inhibition of fungal growth in presence of fluconazole by checker board microdilution assay; assay type: functional
Candida albicans [5] = experiment: Synergistic antifungal activity against fluconazole-resistant Candida albicans 103 assessed as inhibition of fungal growth in presence of fluconazole by checker board microdilution assay; assay type: functional
Candida albicans [6] = experiment: Synergistic antifungal activity against fluconazole-resistant Candida albicans 311 assessed as inhibition of fungal growth in presence of fluconazole by checker board microdilution assay; assay type: functional
Candida albicans [7] = experiment: Antifungal activity against fluconazole-resistant Candida albicans 901 assessed as inhibition of fungal growth by checker board microdilution assay; assay type: functional
Candida albicans [8] = experiment: Antifungal activity against fluconazole-resistant Candida albicans 904 assessed as inhibition of fungal growth by checker board microdilution assay; assay type: functional
Candida albicans [9] = experiment: Antifungal activity against fluconazole-resistant Candida albicans 632 assessed as inhibition of fungal growth by checker board microdilution assay; assay type: functional
Candida albicans [10] = experiment: Antifungal activity against fluconazole-resistant Candida albicans 100 assessed as inhibition of fungal growth by checker board microdilution assay; assay type: functional
Candida albicans [11] = experiment: Antifungal activity against fluconazole-resistant Candida albicans 103 assessed as inhibition of fungal growth by checker board microdilution assay; assay type: functional
Candida albicans [12] = experiment: Antifungal activity against fluconazole-resistant Candida albicans 311 assessed as inhibition of fungal growth by checker board microdilution assay; assay type: functional
Candida albicans [13] = experiment: Synergetic antifungal activity against fluconazole-resistant Candida albicans 901 assessed as fractional inhibitory concentration index in presence of fluconazole by checker board microdilution assay; assay type: functional
Candida albicans [14] = experiment: Synergetic antifungal activity against fluconazole-resistant Candida albicans 904 assessed as fractional inhibitory concentration index in presence of fluconazole by checker board microdilution assay; assay type: functional
Candida albicans [15] = experiment: Synergetic antifungal activity against fluconazole-resistant Candida albicans 632 assessed as fractional inhibitory concentration index in presence of fluconazole by checker board microdilution assay; assay type: functional
Candida albicans [16] = experiment: Synergetic antifungal activity against fluconazole-resistant Candida albicans 100 assessed as fractional inhibitory concentration index in presence of fluconazole by checker board microdilution assay; assay type: functional
Candida albicans [17] = experiment: Synergetic antifungal activity against fluconazole-resistant Candida albicans 103 assessed as fractional inhibitory concentration index in presence of fluconazole by checker board microdilution assay; assay type: functional
Candida albicans [18] = experiment: Synergetic antifungal activity against fluconazole-resistant Candida albicans 311 assessed as fractional inhibitory concentration index in presence of fluconazole by checker board microdilution assay; assay type: functional
A549 = experiment: Cytotoxicity against human A549 cell assessed as inhibition of cell growth after 24 hrs by MTT assay; assay type: functional, cell-based; settings: A549, 24 h
MCF7 = experiment: Cytotoxicity against human MCF7 cell assessed as inhibition of cell growth after 24 hrs by MTT assay; assay type: functional, cell-based; settings: MCF7, 24 h
HepG2 = experiment: Cytotoxicity against human HepG2 cell assessed as inhibition of cell growth after 24 hrs by MTT assay; assay type: functional, cell-based; settings: HepG2, 24 h
[19] = Cytotoxicity against human THLE-2 cell assessed as inhibition of cell growth after 24 hrs by MTT assay; assay type: toxicity, cell-based; settings: THLE-2 cells
[20] = Cytotoxicity against human BEAS-2B cell assessed as inhibition of cell growth after 24 hrs by MTT assay; assay type: toxicity, cell-based; settings: BEAS-2B cells
[21] = Cytotoxicity against mouse NIH3T3 cell assessed as inhibition of cell growth after 24 hrs by MTT assay; assay type: toxicity, cell-based; settings: NIH3T3 cells
RAW264.7 = experiment: Cytotoxicity against mouse RAW264.7 cell assessed as inhibition of cell growth after 24 hrs by MTT assay; assay type: functional, cell-based; settings: RAW264.7, 24 h
[22] = Cytotoxicity against mouse BV-2 cell assessed as inhibition of cell growth after 24 hrs by MTT assay; assay type: toxicity, cell-based; settings: BV-2 cells
[23] = Metabolic stability in human liver microsomes assessed as half life in presence of NADPH cofactor under shaking condition for 10 mins measured after 5 to 60 mins by LC-MS/MS analysis; assay type: ADME, Microsome; settings: time 15-70 min
[24] = Metabolic stability in human liver microsomes assessed as microsomal intrinsic clearance in presence of NADPH cofactor under shaking condition for 10 mins measured after 5 to 60 mins by LC-MS/MS analysis; assay type: ADME, Microsome; settings: time 15-70 min
[25] = Metabolic stability in human liver microsomes assessed as intrinsic clearance in presence of NADPH cofactor under shaking condition for 10 mins measured after 5 to 60 mins by LC-MS/MS analysis; assay type: ADME, Microsome; settings: time 15-70 min
[26] = Metabolic stability in human liver microsomes assessed as compound remaining in presence of NADPH cofactor under shaking condition for 10 mins measured after 60 mins by LC-MS/MS analysis; assay type: ADME, Microsome; settings: time 70 min, read-out: Stability
[27] = Stability in human plasma assessed as compound remaining at 120 mins by LC-MS/MS analysis; assay type: ADME, cell-free; settings: read-out: Stability
[28] = Stability in human plasma assessed as half life at 120 mins by LC-MS/MS analysis; assay type: ADME, cell-free
CYP1A2 = biological target: T1, CYP1A2 (Homo sapiens, UniProt P05177); experiment: Inhibition of CYP1A2 in human liver microsome at 10 uM using phenacetin as substrate incubated for 10 mins in presence of NADPH cofactor by LC-MS/MS analysis; assay type: ADME; settings: liver microsomes, probe phenacetin
T1 sequence (P05177 whole entry): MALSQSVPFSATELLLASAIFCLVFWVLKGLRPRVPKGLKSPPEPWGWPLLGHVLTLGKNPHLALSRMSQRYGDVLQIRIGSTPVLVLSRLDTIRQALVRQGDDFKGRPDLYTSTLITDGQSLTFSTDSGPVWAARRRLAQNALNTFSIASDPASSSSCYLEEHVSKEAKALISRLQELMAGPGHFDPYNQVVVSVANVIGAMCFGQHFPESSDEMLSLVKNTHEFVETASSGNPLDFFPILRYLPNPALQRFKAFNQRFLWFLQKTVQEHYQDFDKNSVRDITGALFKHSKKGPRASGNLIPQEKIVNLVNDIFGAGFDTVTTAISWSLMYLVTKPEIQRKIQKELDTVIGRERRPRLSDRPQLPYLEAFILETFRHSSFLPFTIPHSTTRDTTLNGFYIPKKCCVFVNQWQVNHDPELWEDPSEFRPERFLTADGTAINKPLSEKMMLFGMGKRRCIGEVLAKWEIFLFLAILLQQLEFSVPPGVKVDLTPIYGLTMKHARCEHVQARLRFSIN

CYP2C9 = CYP2C9 (Homo sapiens, UniProt P11712); experiment: Inhibition of CYP2C9 in human liver microsome at 10 uM using diclofenac as substrate incubated for 10 mins in presence of NADPH cofactor by LC-MS/MS analysis; assay type: ADME; settings: liver microsomes, probe diclofenac
CYP2C19 = CYP2C19 (Homo sapiens, UniProt P33261); experiment: Inhibition of CYP2C19 in human liver microsome at 10 uM using S-mephenytoin as substrate incubated for 10 mins in presence of NADPH cofactor by LC-MS/MS analysis; assay type: ADME; settings: liver microsomes, probe S-mephenytoin
CYP2D6 = CYP2D6 (Homo sapiens, UniProt P10635); experiment: Inhibition of CYPD6 in human liver microsome at 10 uM using dextromethorphan as substrate incubated for 10 mins in presence of NADPH cofactor by LC-MS/MS analysis; assay type: ADME; settings: liver microsomes, probe dextromethorphan
CYP3A4 = CYP3A4 (Homo sapiens, UniProt P08684); experiment: Inhibition of CYP3A4 in human liver microsome at 10 uM using midazolam as substrate incubated for 10 mins in presence of NADPH cofactor by LC-MS/MS analysis; assay type: ADME; settings: liver microsomes, probe midazolam
Candida albicans [29] = experiment: Potentiation of fluconazole-induced antifungal activity against fluconazole-resistant Candida albicans 901 assessed as fluconazole MIC by checker board microdilution assay; assay type: functional
Candida albicans [30] = experiment: Potentiation of fluconazole-induced antifungal activity against fluconazole-resistant Candida albicans 904 assessed as fluconazole MIC by checker board microdilution assay; assay type: functional
Candida albicans [31] = experiment: Potentiation of fluconazole-induced antifungal activity against fluconazole-resistant Candida albicans 632 assessed as fluconazole MIC by checker board microdilution assay; assay type: functional
Candida albicans [32] = experiment: Potentiation of fluconazole-induced antifungal activity against fluconazole-resistant Candida albicans 100 assessed as fluconazole MIC by checker board microdilution assay; assay type: functional
Candida albicans [33] = experiment: Potentiation of fluconazole-induced antifungal activity against fluconazole-resistant Candida albicans 103 assessed as fluconazole MIC by checker board microdilution assay; assay type: functional
Candida albicans [34] = experiment: Potentiation of fluconazole-induced antifungal activity against fluconazole-resistant Candida albicans 311 assessed as fluconazole MIC by checker board microdilution assay; assay type: functional
[35] = Binding affinity to recombinant Candida albicans Hsp90 NBD expressed in Escherichia coli by SPR assay
Heat shock protein HSP90 = Heat shock protein HSP90 (Homo sapiens, UniProt P07900+P08238); experiment: Binding affinity to human Hsp90 expressed in Escherichia coli by SPR assay

Chain of CYP2C19 (P33261 whole entry): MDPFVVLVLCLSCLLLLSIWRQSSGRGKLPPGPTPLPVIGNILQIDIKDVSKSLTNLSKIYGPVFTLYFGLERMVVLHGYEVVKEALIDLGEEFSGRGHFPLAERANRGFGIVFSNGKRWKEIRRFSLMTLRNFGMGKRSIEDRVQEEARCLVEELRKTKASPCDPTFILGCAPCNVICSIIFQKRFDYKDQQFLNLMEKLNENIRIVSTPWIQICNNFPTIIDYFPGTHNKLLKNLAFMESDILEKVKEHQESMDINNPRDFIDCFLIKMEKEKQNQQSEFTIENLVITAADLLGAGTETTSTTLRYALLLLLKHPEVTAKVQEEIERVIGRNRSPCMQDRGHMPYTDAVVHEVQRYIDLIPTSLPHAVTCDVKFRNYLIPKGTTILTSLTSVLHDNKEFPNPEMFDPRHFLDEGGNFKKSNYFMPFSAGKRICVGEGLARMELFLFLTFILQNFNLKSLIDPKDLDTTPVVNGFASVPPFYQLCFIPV
Chain of CYP2C9 (P11712 whole entry): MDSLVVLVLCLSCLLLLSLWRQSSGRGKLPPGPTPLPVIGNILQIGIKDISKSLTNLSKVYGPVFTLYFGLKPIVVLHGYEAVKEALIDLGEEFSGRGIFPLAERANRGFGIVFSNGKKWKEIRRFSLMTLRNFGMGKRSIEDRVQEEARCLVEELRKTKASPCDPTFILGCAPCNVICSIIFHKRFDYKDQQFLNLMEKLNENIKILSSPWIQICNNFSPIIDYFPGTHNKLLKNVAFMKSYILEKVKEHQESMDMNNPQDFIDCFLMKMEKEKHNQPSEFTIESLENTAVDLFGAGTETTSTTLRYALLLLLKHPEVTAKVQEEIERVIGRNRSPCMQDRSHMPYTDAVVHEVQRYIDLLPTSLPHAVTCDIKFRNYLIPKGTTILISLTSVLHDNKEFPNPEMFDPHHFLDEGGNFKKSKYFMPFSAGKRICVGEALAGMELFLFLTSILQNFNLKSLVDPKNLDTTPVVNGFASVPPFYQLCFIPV
Chain of CYP2D6 (P10635 whole entry): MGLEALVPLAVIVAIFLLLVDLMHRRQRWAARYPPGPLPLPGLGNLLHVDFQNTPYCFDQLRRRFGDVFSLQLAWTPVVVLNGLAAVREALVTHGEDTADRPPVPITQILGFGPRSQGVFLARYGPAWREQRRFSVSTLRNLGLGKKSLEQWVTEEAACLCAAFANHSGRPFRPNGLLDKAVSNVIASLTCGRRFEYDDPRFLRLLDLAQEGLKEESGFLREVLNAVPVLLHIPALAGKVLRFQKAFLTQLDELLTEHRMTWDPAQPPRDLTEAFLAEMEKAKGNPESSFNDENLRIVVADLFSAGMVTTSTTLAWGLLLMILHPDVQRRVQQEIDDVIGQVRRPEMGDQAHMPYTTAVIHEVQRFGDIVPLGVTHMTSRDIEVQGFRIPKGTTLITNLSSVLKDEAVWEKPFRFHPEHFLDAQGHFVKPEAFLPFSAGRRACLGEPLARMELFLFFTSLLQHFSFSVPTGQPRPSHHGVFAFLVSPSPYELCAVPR
Chain of CYP3A4 (P08684 whole entry): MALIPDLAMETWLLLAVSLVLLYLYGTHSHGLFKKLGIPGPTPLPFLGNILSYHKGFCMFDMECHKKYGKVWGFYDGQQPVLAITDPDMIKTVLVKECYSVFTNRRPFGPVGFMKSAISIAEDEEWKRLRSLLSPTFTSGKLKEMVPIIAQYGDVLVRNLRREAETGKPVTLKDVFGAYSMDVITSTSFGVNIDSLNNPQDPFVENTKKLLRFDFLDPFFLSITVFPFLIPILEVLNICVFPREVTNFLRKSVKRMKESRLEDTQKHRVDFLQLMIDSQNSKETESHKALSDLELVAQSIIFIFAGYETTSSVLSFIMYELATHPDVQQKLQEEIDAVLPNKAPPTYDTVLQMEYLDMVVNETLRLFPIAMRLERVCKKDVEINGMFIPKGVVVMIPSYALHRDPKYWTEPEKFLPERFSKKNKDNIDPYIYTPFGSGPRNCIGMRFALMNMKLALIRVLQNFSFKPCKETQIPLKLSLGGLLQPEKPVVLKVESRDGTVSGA

## CNC(=O)c1noc(-c2cc(-c3ccc(C)cc3)c(O)cc2O)c1-c1ccc(CN2CCCCC2)cc1
Candida albicans [1]
  MIC80: 0.25 µg/mL
Candida albicans [2]
  MIC80: 0.125 µg/mL
Candida albicans [3]
  MIC80: 2 µg/mL
Candida albicans [4]
  MIC80: 1 µg/mL
Candida albicans [5]
  MIC80: 0.5 µg/mL
Candida albicans [6]
  MIC80: 0.5 µg/mL
Candida albicans [7]
  MIC80: > 64 µg/mL
Candida albicans [8]
  MIC80: > 64 µg/mL
Candida albicans [9]
  MIC80: > 64 µg/mL
Candida albicans [10]
  MIC80: > 64 µg/mL
Candida albicans [11]
  MIC80: > 64 µg/mL
Candida albicans [12]
  MIC80: > 64 µg/mL
Candida albicans [13]
  fractional inhibitory concentration index (FICI): 0.02
Candida albicans [14]
  fractional inhibitory concentration index (FICI): 0.01
Candida albicans [15]
  fractional inhibitory concentration index (FICI): 0.062
Candida albicans [16]
  fractional inhibitory concentration index (FICI): 0.047
Candida albicans [17]
  fractional inhibitory concentration index (FICI): 0.039
Candida albicans [18]
  fractional inhibitory concentration index (FICI): 0.023
A549
  pIC50: 4.97
MCF7
  pIC50: 4.81
HepG2
  pIC50: 4.60
[19]
  IC50 at 24 h: 2.79 µM
[20]
  IC50 at 24 h: 11.6 µM
[21]
  IC50 at 24 h: 0.46 µM
RAW264.7
  pIC50: 5.44
[22]
  IC50 at 24 h: 3.04 µM
[23]
  half-life: 43.3 min
[24]
  CLint: 32 µL/min/mg
[25]
  CLint: 28.8 mL/min/kg
[26]
  remaining at 1.167 h: 38.3%
[27]
  remaining at 2 h: 55.2%
[28]
  half-life: 131 min
CYP1A2
  inhibition at 10 min, 10 µM: 17.7%
CYP2C9
  inhibition at 10 min, 10 µM: 44.6%
CYP2C19
  inhibition at 10 min, 10 µM: 48.5%
CYP2D6
  inhibition at 10 min, 10 µM: 24.8%
CYP3A4
  inhibition at 10 min, 10 µM: 17.7%
Candida albicans [29]
  MIC80: 1 µg/mL
Candida albicans [30]
  MIC80: 0.5 µg/mL
Candida albicans [31]
  MIC80: 2 µg/mL
Candida albicans [32]
  MIC80: 2 µg/mL
Candida albicans [33]
  MIC80: 2 µg/mL
Candida albicans [34]
  MIC80: 1 µg/mL

## C[C@@H]1C[C@H]2O[C@@H]2/C=C\C=C\C(=O)Cc2c(Cl)c(O)cc(O)c2C(=O)O1 [RADICICOL]
Candida albicans [1]
  MIC80: 1 µg/mL
Candida albicans [2]
  MIC80: 0.5 µg/mL
Candida albicans [3]
  MIC80: 1 µg/mL
Candida albicans [4]
  MIC80: 0.5 µg/mL
Candida albicans [5]
  MIC80: 1 µg/mL
Candida albicans [6]
  MIC80: 1 µg/mL
[35]
  pKd: 8.70

## CCNC(=O)c1noc(-c2cc(-c3ccccc3C)c(O)cc2O)c1-c1ccc(CN2CCOCC2)cc1
Candida albicans [1]
  MIC80: > 64 µg/mL
Candida albicans [2]
  MIC80: > 64 µg/mL
Candida albicans [3]
  MIC80: > 64 µg/mL
Candida albicans [4]
  MIC80: > 64 µg/mL
Candida albicans [5]
  MIC80: > 64 µg/mL
Candida albicans [6]
  MIC80: > 64 µg/mL
[35]
  pKd: < 4.60
Heat shock protein HSP90
  Kd: > 25 µM

## CCNC(=O)c1noc(-c2cc(-c3cccc(Cl)c3)c(O)cc2O)c1-c1ccc(CN2CCOCC2)cc1
Candida albicans [1]
  MIC80: 1 µg/mL
Candida albicans [2]
  MIC80: 0.25 µg/mL
Candida albicans [3]
  MIC80: 0.5 µg/mL
Candida albicans [4]
  MIC80: 1 µg/mL
Candida albicans [5]
  MIC80: 0.5 µg/mL
Candida albicans [6]
  MIC80: 1 µg/mL
[23]
  half-life: 19.3 min
[24]
  CLint: 72 µL/min/mg
[25]
  CLint: 64.8 mL/min/kg
[26]
  remaining at 1.167 h: 12.1%

## CCNC(=O)c1noc(-c2cc(-c3ccc(C)cc3)c(O)cc2O)c1-c1ccc(CN2CCSCC2)cc1
Candida albicans [1]
  MIC80: 0.5 µg/mL
Candida albicans [2]
  MIC80: 8 µg/mL
Candida albicans [3]
  MIC80: 0.5 µg/mL
Candida albicans [4]
  MIC80: 2 µg/mL
Candida albicans [5]
  MIC80: 1 µg/mL
Candida albicans [6]
  MIC80: 2 µg/mL
